Patent publication US9145375B2, “Quinazolinone compounds” (PRANA BIOTECHNOLOGY LIMITED, priority 2008, dated 2015)
In brackets after ≈: the same amount, converted by molar mass. Several values for one entry are separate records, joined by “and”; a condition that tells them apart may be missing. Equal values may be shown once.

Key:
[1] = Metabolism in hepatocytes (predicted EH), rat; type: in vitro ADME
[2] = Plasma Protein Binding, human; type: in vitro ADME
[3] = Metabolism in hepatocytes (predicted EH), dog; type: in vitro ADME
[4] = test system: MPTP induced cell death in the SN; assay: Parkinson's disease in vivo: MPTP model; parameters: species or system mouse; details: MPTP mice; for Behaviour Pole Test, % (SSV = 0%) / Behaviour Pole Test, value ± SD: 30 mg/kg; for SN cell counts % of SSV / SN cell counts (cells +/− SD): test drug 30 mg/kg daily by oral gavage, several experiments
Text: Parkinson's Disease In Vivo Technique: MPTP
MPTP (1-methyl 4-phenyl 1,2,3,6-tetrahydropyridine) is a chemical that is related to the opioid analgesic drugs. MPTP causes Parkinsonian side-effects. This occurs when MPTP is metabolized into MPP+, which kills neurons in a part of the brain called the substantia nigra. MPP+ interferes with mitochondria metabolism which leads to cell death and causes the build up of free radicals, toxic molecules that contribute further to cell destruction. MPTP has abilities to effect neuronal death in dopaminergic cells. Such effects lead to gross depletion of dopaminergic neurons which has severe implications on cortical control of complex movements.
General Experimental Design
Determining that MPTP Causes Continued Cell Death
Control (non tg) and transgenic mice receive five intraperitoneal injections of MPTP-HCl (23 gauge needle, 20 mg\kg of free base; Sigma, St. Louis, Mo., USA) dissolved in sterile 0.9% saline at 2-h interval in 1 day. Control animals receive five intraperitoneal injections of 0.9% saline. […] 20 C57BL6, 10 control and 10 hA53T tg are used to establish the precise dose of toxin at 2 weeks. Animals are allowed to recover for 1 week, 2 weeks, 1 month, 12, months and 18 months. The animals are killed and the brains removed for histological (stereological) and biochemical analysis.
Determining Whether Test Drug Reduces MPTP Induced Cell Death
Animals are treated as described above. They are treated with test drug 2 days after MPTP injection until death. Test drug is given by oral gavage at a daily dosage of 30 mg/kg. The time of killing the animals is dependant on the analysis of Experiment 1, normally one month or less.
Drugs are administered by oral gavage, at a daily dosage of 30 mg/kg.
Mice are assessed at prior to killing the mice for histological analysis.
Motor coordination and strength are assessed using the rotarod. The rotarod consists of a plastic rotating rod of 3.6 cm axial diameter partitioned by metal disks into five sections to allow the testing of multiple mice simultaneously. Mice are trained on two sessions where the rotation speed is ramped from 0-30 rpm over 5 min and one training session where rotation is a constant 16 rpm for 5 min. Within two days of training, animals are formally assessed on the rotarod rotating at 16 rpm for a maximum of 3 min: the time to fall on this single test is the recorded data point.
The pole is a 700 mm long, 5 mm diameter, wooden rod. The rod is supported at its base and held vertical. The total walking distance for the mice is 550 mm. The time taken for the mouse to descend the pole is measured with a maximum time of 120 s. If a mouse falls, the time is scored as 120 s.

[5] = In Vitro Metabolism in Human Liver Microsomes (predicted EH); type: in vitro ADME
Experimental: [formula] [formula] [formula] [formula] • Cbrain=concentration of compound in brain parenchyma (ng/g) • Cbrain homogenate=concentration of compound in brain homogenate (ng/g) • Cbrain vasculature=concentration of compound in brain vasculature (ng/g) • CPlasma=concentration of compound in plasma (ng/mL) • VP=brain plasma volume (26 μL/g for male Swiss Outbred mice) • B:P=brain-to-plasma ratio • Papp=apparent permeability coefficient of compound permeating the blood-brain barrier • ∫0^tcplasmadt=concentration of compound in plasma from time zero to 5 min post-dose (equivalent to the 5 min post-dose plasma concentration, assuming no back diffusion from brain to plasma within this time period) • A=surface area of capillaries forming the blood-brain barrier (240 cm^2/g brain weight for mouse) Assay 7 In Vitro Metabolism in Human Liver Microsomes
The solubility of test compounds and their recovery from the incubation media were confirmed prior to the metabolic assay. Metabolic stability was performed by incubating test compounds individually (1 μM) at 37° C. with human liver microsomes. The metabolic reaction was initiated by the addition of a NADPH-regenerating system (i.e. NADPH is the cofactor required for CYP450-mediated metabolism) and quenched at various time points over the incubation period by the addition of acetonitrile. Additional samples with dual co-factors, i.e. NADPH and UDPGA (the co-factor for glucuronidation), were also included in the incubation for the qualitative assessment of the potential for glucuronide formation. The relative loss of parent compound and formation of metabolic products was monitored by LC/MS using a Waters/Micromass LCT mass spectrometer.
Test compound concentration versus time data were fitted to an exponential decay function to determine the first-order rate constant for substrate depletion. In cases where clear deviation from first-order kinetics was evident, only the initial linear portion of the profile was utilised to determine the degradation rate constant (k). Each substrate depletion rate constant was then used to calculate: [1] degradation half-life, [2] an in vitro intrinsic clearance value (CLint,in vitro); [3] a predicted in vivo intrinsic clearance value (CLint); and [4] a predicted in vivo hepatic extraction ratio (EH).
[formula] • The following scaling parameters were assumed for estimating metabolic stability parameters:
Predictions of In Vivo Hepatic Clearance and Hepatic Extraction Ratios:
The microsome-predicted hepatic extraction ratios (EH) obtained based on the relative rate of degradation of the test compound in vitro, lead to test compounds being classified as low (<0.3), intermediate (0.3-0.7), high (0.7-0.95) or very high (>0.95) extraction compounds. The assumptions underlying this classification are stated below.
The use of hepatic microsomes in the prediction of the in vivo hepatic clearance and extraction ratio is based on a number of assumptions (Obach, 1999; Drug Metab. Dispos. 27: 1350-1359):
1) Hepatic (microsomal) metabolic clearance is the major clearance mechanism for compounds in vivo;
2) NADPH-dependent oxidative metabolism predominates over other metabolic routes (i.e. direct conjugative metabolism, reduction, hydrolysis, etc.); and,
3) Rates of metabolism and enzyme activities in vitro are truly reflective of those that exist in vivo.
Calculations of intrinsic clearance are based on the “in vitro […] method” (Obach, 1999), which has two further inherent assumptions:
1) The substrate concentration employed is well below the apparent KM for substrate turnover; and,
2) There is no significant product inhibition, nor is there any mechanism based inactivation of enzyme.
Data should be considered within these terms of reference.

[6] = Equilibrium Solubility (pH 2-7); type: physicochemical; details: for solubility thermodynamic: aqueous buffer, thermodynamic from solid

| Compound | Metabolism (Predicted EH), Hepatocytes: Rat [1] | fraction unbound [2] | Metabolism (Predicted EH), Hepatocytes: Dog [3] | Metabolism (Predicted EH), Microsomes: Human [5] | pH dependence of equilibrium solubility [6] | solubility thermodynamic [6] [µg/mL] | Behaviour Pole Test, % (SSV = 0%) [4] [%] | Behaviour Pole Test, value ± SD [4] | SN cell counts % of SSV [4] | SN cell counts (cells +/− SD) [4] |
| --- | --- | --- | --- | --- | --- | --- | --- | --- | --- | --- |
| CNCc1nc2c(O)c(Cl)cc(Cl)c2c(=O)n1C [Compound F4161] | Rat = 0.29 | 0.043 | Dog = 0.56 | Human <0.2 | pH dependent | 196 to 746 (≈ 0.68 to 2.59 mM) | 2.55 | (2.85 ± 1.63) | 28.05% | (2781.33 ± 382.88) cells |
| CCN(CC)Cc1nc2c(O)c(Cl)cc(Cl)c2c(=O)n1CC1CC1 [Compound F4385] | Rat = 0.35 | 0.008 to 0.013 | Dog = 0.37 | Human <0.2 | pH dependent | 683 to 1660 (≈ 1.84 to 4.49 mM) | – | – | 31.49% | 3690.00 ± 919.10 cells |
| C#CCN(C)Cc1nc2c(O)c(Cl)cc(Cl)c2c(=O)n1CC1CC1 [Compound F4387] | – | – | – | 0.75 | – | – | – | – | – | – |
| Br.CCn1c(CNC)nc2c(O)c(Cl)cc(Cl)c2c1=O [Compound F4486] | – | – | – | – | – | – | 38.46 | (1.81 ± 0.80) | 24.11% | 2647.97 ± 814.44 cells |
| Br.CCNCc1nc2c(O)c(Cl)cc(Cl)c2c(=O)n1C [Compound F4496] | Rat = 0.35 | – | Dog = 0.66 | Human <0.2 | not pH dependent | 224 to 1500 | 38.61 | (1.79 ± 1.13) | – | – |

More lines, main results first:

| Metabolism (Predicted EH), Hepatocytes: Rat [1] | fraction unbound [2] | Metabolism (Predicted EH), Hepatocytes: Dog [3] | Metabolism (Predicted EH), Microsomes: Human [5] | pH dependence of equilibrium solubility [6] | solubility thermodynamic [6] [µg/mL] | Compound | Behaviour Pole Test, % (SSV = 0%) [4] [%] | Behaviour Pole Test, value ± SD [4] | SN cell counts % of SSV [4] | SN cell counts (cells +/− SD) [4] |
| --- | --- | --- | --- | --- | --- | --- | --- | --- | --- | --- |
| Rat = 0.45 | 0.005 | Dog = 0.39 | Human <0.31 | pH dependent | 393 to 1700 (≈ 1.15 to 4.98 mM) | CN(C)Cc1nc2c(O)c(Cl)cc(Cl)c2c(=O)n1CC1CC1 [Compound F4267] | – | – | 53.94% and 53.77% | 3331.96 ± 262.97 cells and 4315.11 ± 310.21 cells |
| Rat = 0.30 | 0.029 | Dog = 0.49 | Human <0.2 | not pH dependent | 3810 to 10200 | CCn1c(CN(C)C)nc2c(O)c(Cl)cc(Cl)c2c1=O.Cl [Compound F4268] | −25.38 | (3.66 ± 1.87) | 40.35% and 74.83% and 64.00% | 3797.33 ± 562.78 cells and 3065 ± 387 cells and 3163.87 ± 611.27 cells |
| Rat = 0.35 | 0.054 to 0.059 | Dog = 0.54 | Human <0.2 | pH dependent | 166 to 2670 (≈ 0.549 to 8.84 mM) | CN(C)Cc1nc2c(O)c(Cl)cc(Cl)c2c(=O)n1C [Compound F4269, 5,7-Dichloro-2-(dimethylamino)methyl-8-hydroxy-3-methylquinazolin-4(3H)-one] | – | – | 26.76% | 3557.33 ± 556.55 cells |
| Rat = 0.35 | 0.023 to 0.024 | Dog = 0.56 | Human <0.2 | not pH dependent | 2230 to 4730 (≈ 7.04 to 14.9 mM) | CCNCc1nc2c(O)c(Cl)cc(Cl)c2c(=O)n1CC [Compound F4495] | 18.32 | (2.26 ± 0.82) | 45.45% and 50.33% | – |
